Tested on: live A549 human cancer cells
Assay: Confocal fluorescence microscopy (CFM) of live A549 cells stained with c(RGDyK) peptide conjugates (TMIAs)
Format: cell-based
Conditions: 5 μM conjugate, 2 hours incubation, 37° C., HeNe633 laser
Description: The general protocol for Confocal Microscopy by Chen, et al was followed with the following detailed procedures for cell culture and staining.
Cell Preparation: An A549 culture obtained from the American Type Culture Collection (ATCC) was grown to 50-70% confluency in an In Vitro Scientific 35 mm culture dish with 10 mm Glass bottom well. The culture was incubated in DMEM (Dulbecco's Modified Eagle Medium) with 10% Fetal Bovine Serum (FBS) overnight at 37° C. and 5% CO2. To obtain a suspension cell culture for transfer purpose, the cells were washed with Phosphate Buffered Saline (PBS) and then 0.25% Trypsin-EDTA (1×) (Invitrogen) was added to detach the cells.
Cell Staining: The cells were washed 3× with pre-heated PBS (Phosphate-buffered saline). 5 μM c(RGDyK) peptide conjugates (TMIAs) were added to the 10 mm glass bottom well and incubated at 37° C. and 5% CO2. Cells were then washed 4× with chilled PBS. The samples were viewed immediately under the scanning laser confocal microscope (Leica Microsystems Inc.). Confocal Microscopy Scanning: Leica TCS SP5 II AOBS Filter Free Tunable Spectral Confocal Research Microscope with Resonant Scanner and Hybrid Detectors attached to Leica DMI6000 Fully Automated Microscope was used, with 40× water immersion objective. The 405 Diode and HeNe633 lasers were employed for visualizing suspected auto-fluorescence, c(RGDyK) Cy5.5-TMIA respectively. […]

c(RGDyK)-SMCC-DLys(Cy5.5)-Lys(Gd-DOTA)-NH2 [Compound (44)]
CFM image: fluorescence of the TMIA in the cell: illuminated areas a result of fluorescence of the TMIA

From US10610608B2, “Modular imaging agents containing amino acids and peptides” (Rochester Institute of Technology, priority 2013, dated 2020)
